Assay results reported in patent US12171756B2, “NLRP3 modulators” (Innate Tumor Immunity, Inc., priority 2017, dated 2024).
Like-named read-outs stand apart in the source and are kept apart here.

Assays:
human TLR7 = target: T1, human TLR7 (Homo sapiens, UniProt Q9NYK1); experiment: In vitro human TLR7 binding reporter assay (HEK-Blue, NF-kB/AP1-inducible SEAP); assay type: cell-based; settings: HEK-Blue human TLR7 SEAP reporter cells; activity range classes; read-out: TLR7 Agonist EC50
T1 construct: host or cells: human HEK-Blue cells (HEK293-derived) co-expressing TLR7 and an NF-kB/AP1-inducible SEAP reporter
T1 sequence (Q9NYK1 27-1049): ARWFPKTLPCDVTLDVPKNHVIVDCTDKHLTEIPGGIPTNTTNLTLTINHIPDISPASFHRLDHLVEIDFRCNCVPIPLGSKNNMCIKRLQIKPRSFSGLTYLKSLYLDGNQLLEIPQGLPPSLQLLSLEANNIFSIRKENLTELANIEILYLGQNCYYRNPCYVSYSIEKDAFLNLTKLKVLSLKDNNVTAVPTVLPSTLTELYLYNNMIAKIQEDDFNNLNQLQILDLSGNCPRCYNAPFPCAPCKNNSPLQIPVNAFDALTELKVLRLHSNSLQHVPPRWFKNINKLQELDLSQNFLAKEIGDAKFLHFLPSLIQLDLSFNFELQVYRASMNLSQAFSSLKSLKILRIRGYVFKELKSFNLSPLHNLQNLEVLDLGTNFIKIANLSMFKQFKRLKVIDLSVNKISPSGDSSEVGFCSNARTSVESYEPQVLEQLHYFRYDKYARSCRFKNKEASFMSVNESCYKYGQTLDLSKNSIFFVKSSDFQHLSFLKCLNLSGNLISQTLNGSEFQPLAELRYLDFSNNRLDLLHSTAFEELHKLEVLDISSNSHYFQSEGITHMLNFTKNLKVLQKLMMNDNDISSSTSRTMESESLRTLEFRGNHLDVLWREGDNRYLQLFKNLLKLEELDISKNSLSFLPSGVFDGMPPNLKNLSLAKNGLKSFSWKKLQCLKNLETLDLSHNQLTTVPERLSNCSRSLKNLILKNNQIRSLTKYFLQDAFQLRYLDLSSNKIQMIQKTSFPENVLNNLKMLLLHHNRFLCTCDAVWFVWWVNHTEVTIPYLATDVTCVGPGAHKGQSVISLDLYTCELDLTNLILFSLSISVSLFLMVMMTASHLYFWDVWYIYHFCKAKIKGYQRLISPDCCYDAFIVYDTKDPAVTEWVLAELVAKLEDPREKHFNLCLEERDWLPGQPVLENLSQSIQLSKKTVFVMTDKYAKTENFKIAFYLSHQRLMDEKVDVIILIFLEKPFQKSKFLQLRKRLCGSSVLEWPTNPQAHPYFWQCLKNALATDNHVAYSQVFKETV
Method in brief: (§1)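 HEK-Blue cells expressing human TLR7 or TLR8 with NF-kB/AP1-inducible SEAP reporter, plated 24 h, then compound-treated 18 h at 37° C, 5% CO2. EC50 normalized to 100% Ymax set by 50 μM reference standard.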

[1] = tested on: IL-1β production in PMA-differentiated THP-1 cells; experiment: Measurement of IL-1β production in PMA-differentiated THP-1 cells (ELISA, 4 hours); assay type: cell-based, human; settings: assayed using one or more of the described procedures, read-out: NLRP3 hIL1B IC50
Method in brief: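 THP-1 cells differentiated with PMA (10 μg/ml, 24 h), replated at 1×10^6 cells/ml in RPMI with 2% FBS and exposed to compounds (e.g. 0.1–100 μM, 1% DMSO final) for 4 hours. IL-1β in cell-free supernatant quantified by ELISA against vehicle control.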

human TLR8 = target: T2, human TLR8 (Homo sapiens, UniProt Q9NR97); experiment: In vitro human TLR8 binding reporter assay (HEK-Blue, NF-kB/AP1-inducible SEAP); assay type: cell-based; settings: HEK-Blue human TLR8 SEAP reporter cells; activity range classes; read-out: TLR8 Agonist EC50
T2 construct: host or cells: human HEK-Blue cells (HEK293-derived) co-expressing TLR8 and an NF-kB/AP1-inducible SEAP reporter
T2 sequence (Q9NR97 27-1041): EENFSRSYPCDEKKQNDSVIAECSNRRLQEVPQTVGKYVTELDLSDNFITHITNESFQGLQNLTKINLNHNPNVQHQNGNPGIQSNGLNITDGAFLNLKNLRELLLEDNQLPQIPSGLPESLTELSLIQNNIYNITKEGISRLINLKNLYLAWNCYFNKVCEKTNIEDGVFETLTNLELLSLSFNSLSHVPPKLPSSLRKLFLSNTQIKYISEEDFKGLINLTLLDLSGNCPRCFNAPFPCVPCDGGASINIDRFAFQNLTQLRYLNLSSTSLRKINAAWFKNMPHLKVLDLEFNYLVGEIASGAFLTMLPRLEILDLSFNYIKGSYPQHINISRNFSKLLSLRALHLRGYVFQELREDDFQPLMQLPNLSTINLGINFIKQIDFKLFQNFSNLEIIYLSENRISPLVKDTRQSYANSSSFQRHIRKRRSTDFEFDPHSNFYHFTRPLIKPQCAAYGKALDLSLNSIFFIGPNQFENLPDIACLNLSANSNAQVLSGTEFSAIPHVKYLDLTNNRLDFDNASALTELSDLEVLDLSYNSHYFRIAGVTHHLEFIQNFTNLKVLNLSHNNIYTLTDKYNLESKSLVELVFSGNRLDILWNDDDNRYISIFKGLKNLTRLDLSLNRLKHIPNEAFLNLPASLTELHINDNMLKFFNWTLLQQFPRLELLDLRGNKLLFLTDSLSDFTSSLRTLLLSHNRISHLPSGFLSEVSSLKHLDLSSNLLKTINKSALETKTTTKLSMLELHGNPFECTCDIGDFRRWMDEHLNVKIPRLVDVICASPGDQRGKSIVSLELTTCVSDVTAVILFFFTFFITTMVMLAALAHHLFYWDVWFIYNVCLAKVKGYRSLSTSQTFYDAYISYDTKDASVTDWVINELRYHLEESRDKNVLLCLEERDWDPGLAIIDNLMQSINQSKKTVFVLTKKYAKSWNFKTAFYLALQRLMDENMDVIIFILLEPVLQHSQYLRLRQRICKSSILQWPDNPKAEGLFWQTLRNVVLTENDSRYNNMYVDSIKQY
Method in brief: as §1

[2] = Homo sapiens, THP-1, human IL-1β production

Row | EC50 (human TLR7) [µM] | IC50 [1, 2] [µM] | EC50 (human TLR8) [µM] | IC50 ([1]; human IL-1β production) [µM] | Compound
1 | > 100 | 2.23 | > 100 |  | Nc1cc(CCCO)c2ccc(-n3cccn3)cc2n1 [Compound 216, 3-(2-amino-7-(1H-pyrazol-1-yl)quinolin-4-yl)propan-1-ol]
2 | > 100 | 14.3 | > 100 |  | CC(=O)NCCc1cc(N)nc2cc(-c3ccn[nH]3)ccc12 [Compound 217, N-(2-(2-amino-7-(1H-pyrazol-5-yl)quinolin-4-yl)ethyl)acetamide]
3 | > 100 | 1.19 | > 100 |  | Nc1cc(CCCCO)c2ccc(-c3ccn[nH]3)cc2n1 [Compound 218, 4-(2-amino-7-(1H-pyrazol-5-yl)quinolin-4-yl)butan-1-ol]
4 | > 100 | 2.75 | > 100 |  | Nc1cc(CCCO)c2ccc(-c3ccsn3)cc2n1 [Compound 219, 3-(2-amino-7-(isothiazol-3-yl)quinolin-4-yl)propan-1-ol]
5 | > 100 | 0.57 | > 100 |  | Nc1cc(OC[C@@H](O)CO)c2ccc(-c3ccn[nH]3)cc2n1 [Compound 220, (S)-3-((2-amino-7-(1H-pyrazol-5-yl)quinolin-4-yl)oxy)propane-1,2-diol]
6 | > 100 | 0.52 | > 100 |  | Nc1cc(OC[C@H](O)CO)c2ccc(-c3ccn[nH]3)cc2n1 [Compound 221]
7 | > 100 | 0.06 | > 100 |  | N#CCCCNc1cc(N)nc2cc(-c3ccn[nH]3)ccc12 [Compound 222]
8 | > 100 | 1.35 | > 100 |  | CC(C)(CNc1cc(N)nc2cc(-c3ccn[nH]3)ccc12)S(C)(=O)=O [Compound 223]
9 | > 100 | 0.22 | > 100 |  | Nc1cc(NCCc2ncn[nH]2)c2ccc(-c3ccn[nH]3)cc2n1 [Compound 224]
10 | > 100 | 0.13 | > 100 |  | Nc1cc(NCCc2cnc[nH]2)c2ccc(-c3ccn[nH]3)cc2n1 [Compound 225]
11 | > 100 | 0.73 | > 100 |  | Nc1cc(NCc2c[nH]nn2)c2ccc(-c3ccn[nH]3)cc2n1 [Compound 226]
12 | > 100 | 0.33 | > 100 |  | Nc1cc(NCc2nc[nH]n2)c2ccc(-c3ccn[nH]3)cc2n1 [Compound 227]
13 | > 100 | 0.16 | > 100 |  | Nc1cc(NCc2cn[nH]c2)c2ccc(-c3ccn[nH]3)cc2n1 [Compound 228]
14 | > 100 | 0.09 | > 100 |  | Cn1ccc(CNc2cc(N)nc3cc(-c4ccn[nH]4)ccc23)n1 [Compound 229]
15 | > 100 | 0.54 | > 100 |  | Nc1cc(NCc2cnco2)c2ccc(-c3ccn[nH]3)cc2n1 [Compound 230]
16 | > 100 | 1.27 | > 100 |  | Nc1cc(NCCCn2cncn2)c2ccc(-c3ccn[nH]3)cc2n1 [Compound 231]
17 | > 100 | 0.23 | > 100 |  | Nc1cc(N[C@@H]2CCC[C@@H]2O)c2ccc(-c3ccn[nH]3)cc2n1 [Compound 232]
18 | > 100 | 0.09 | > 100 |  | Nc1cc(N[C@H]2C[C@H](O)C2)c2ccc(-c3ccn[nH]3)cc2n1 [Compound 233]

Row | EC50 (human TLR7) [µM] | IC50 [1, 2] [µM] | EC50 (human TLR8) [µM] | IC50 ([1]; human IL-1β production) [µM] | Compound
19 | > 100 | 0.23 | > 100 |  | Nc1cc(N[C@H]2C[C@@H](O)C2)c2ccc(-c3ccn[nH]3)cc2n1 [Compound 234]
20 | > 100 | 0.86 | > 100 |  | Nc1cc(N[C@H]2CCC[C@H]2O)c2ccc(-c3ccn[nH]3)cc2n1 [Compound 235]
21 | > 100 | 2.65 | > 100 |  | Cc1cn(CCNc2cc(N)nc3cc(-c4ccn[nH]4)ccc23)nn1 [Compound 236]
22 | > 100 | 2.57 | > 100 |  | Cc1nc[nH]c1CNc1cc(N)nc2cc(-c3ccn[nH]3)ccc12 [Compound 237]
23 | > 100 | 1.49 | > 100 |  | Nc1cc(NCCCc2cccnc2)c2ccc(-c3ccn[nH]3)cc2n1 [Compound 238]
24 | > 100 | 4.83 | > 100 |  | Cc1ncsc1CCNc1cc(N)nc2cc(-c3ccn[nH]3)ccc12 [Compound 239]
25 | > 100 | 0.24 | > 100 |  | Nc1cc(NCc2ncc[nH]2)c2ccc(-c3ccn[nH]3)cc2n1 [Compound 240]
26 | > 100 | 2.25 | > 100 |  | Nc1cc(NCCCn2ccnc2)c2ccc(-c3ccn[nH]3)cc2n1 [Compound 241]
27 | > 100 | 2.35 | > 100 |  | Cn1nccc1CNc1cc(N)nc2cc(-c3ccn[nH]3)ccc12 [Compound 242]
28 | > 100 | 1.02 | > 100 |  | Cn1cnc(CNc2cc(N)nc3cc(-c4ccn[nH]4)ccc23)c1 [Compound 243]
29 | > 100 | 0.35 | > 100 |  | Nc1cc(NCc2cncs2)c2ccc(-c3ccn[nH]3)cc2n1 [Compound 244]
30 | > 100 | 1.34 | > 100 |  | Nc1cc(N[C@H]2CC[C@@H](O)C2)c2ccc(-c3ccn[nH]3)cc2n1 [Compound 245]
31 | > 100 | 0.17 | > 100 |  | Nc1cc(N[C@H]2CC[C@H](O)C2)c2ccc(-c3ccn[nH]3)cc2n1 [Compound 246]
32 | > 100 | 0.48 | > 100 |  | Nc1cc(N[C@@H]2CC[C@H](O)C2)c2ccc(-c3ccn[nH]3)cc2n1 [Compound 247]
33 | > 100 | 0.33 | > 100 |  | Nc1cc(N[C@@H]2CC[C@@H](O)C2)c2ccc(-c3ccn[nH]3)cc2n1 [Compound 248]
34 | > 100 | 0.05 | > 100 |  | Nc1cc(NCc2ncco2)c2ccc(-c3ccn[nH]3)cc2n1 [Compound 249]
35 | > 100 |  | > 100 | 1.72 | Nc1cc(N[C@H]2CCCC[C@H]2O)c2ccc(-c3ccn[nH]3)cc2n1 [Compound 250]
